Data reported in patent US20100261877A1, “PROCESS FOR ISOLATING THERAPEUTIC PEPTIDES” (priority 2009, published 2010).
Where a SMILES comes first, the peptide text is derived from it. Bridges are numbered along the chain shown (N, C = ends).

Key:
[1] = Solubility of SEQ ID NO. 1 in aqueous ethanol solution; assay type: physicochemical
From the text: The above general procedures were followed replacing isopropyl alcohol (IPA) with ethanol.
(§1) 1 that is able to be dissolved in the aqueous ethanol solution, depending on the v/v % ethanol:water. The very sharp increase in solubility between 50-70 ethanol was very unexpected and the discovery of this unexpected result allowed for the successful isolation of SEQ ID NO. 1 by precipitation which was necessary for a viable large manufacturing scale-up required for commercial production.

[2] = target: T1, guanylate cyclase type C receptor (GCC) (Homo sapiens, UniProt P25092); conditions: in vitro, varying concentrations; cited from earlier work
T1 construct: endogenous in cells

[3] = tested on: small bowel motility, fluid secretion, visceral pain; conditions: oral, mice and rats; cited from earlier work
[4] = Solubility of SEQ ID NO. 1 in aqueous isopropanol solution; assay type: physicochemical
From the text: as §1, with “in” for “in the”, “isopropanol” for “ethanol”, “isopropanol:water.” for “ethanol:water.”, “40-60% isopropanol” for “50-70 ethanol”

T1 sequence (P25092 24-1073): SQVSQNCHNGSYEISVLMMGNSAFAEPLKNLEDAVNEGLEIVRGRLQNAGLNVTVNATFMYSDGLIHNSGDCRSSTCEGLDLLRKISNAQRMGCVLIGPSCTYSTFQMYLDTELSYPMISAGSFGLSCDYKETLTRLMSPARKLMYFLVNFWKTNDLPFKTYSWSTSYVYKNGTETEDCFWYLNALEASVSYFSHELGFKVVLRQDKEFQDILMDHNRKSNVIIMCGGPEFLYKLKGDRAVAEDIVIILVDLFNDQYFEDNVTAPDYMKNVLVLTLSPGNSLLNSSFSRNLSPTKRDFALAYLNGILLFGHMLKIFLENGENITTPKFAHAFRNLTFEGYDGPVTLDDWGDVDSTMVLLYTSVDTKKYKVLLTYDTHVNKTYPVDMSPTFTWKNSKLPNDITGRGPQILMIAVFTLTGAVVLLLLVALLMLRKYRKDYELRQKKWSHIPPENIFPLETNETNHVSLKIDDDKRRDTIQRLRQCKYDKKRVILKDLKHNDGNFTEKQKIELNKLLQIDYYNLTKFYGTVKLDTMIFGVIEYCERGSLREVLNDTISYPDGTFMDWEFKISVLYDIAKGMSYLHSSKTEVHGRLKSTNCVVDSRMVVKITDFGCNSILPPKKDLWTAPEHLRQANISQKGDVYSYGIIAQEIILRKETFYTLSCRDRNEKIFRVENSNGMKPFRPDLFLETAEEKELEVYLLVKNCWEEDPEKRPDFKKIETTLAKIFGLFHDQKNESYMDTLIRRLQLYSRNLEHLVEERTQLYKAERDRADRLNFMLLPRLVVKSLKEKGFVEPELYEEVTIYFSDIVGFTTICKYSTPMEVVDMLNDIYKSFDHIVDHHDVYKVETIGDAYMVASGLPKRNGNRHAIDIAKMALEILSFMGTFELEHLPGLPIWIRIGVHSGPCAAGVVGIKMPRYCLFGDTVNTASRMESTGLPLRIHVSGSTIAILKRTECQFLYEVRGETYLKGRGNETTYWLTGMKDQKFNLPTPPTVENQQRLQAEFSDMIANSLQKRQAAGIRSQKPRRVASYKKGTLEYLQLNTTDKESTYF

For `C[C@@H]1NC(=O)[C@@H]2CCCN2C(=O)[C@H](CC(N)=O)NC(=O)[C@@H]2CSSC[C@H](N)C(=O)N[C@H]3CSSC[C@H](NC1=O)C(=O)N[C@@H]([C@@H](C)O)C(=O)NCC(=O)N[C@H](C(=O)N[C@@H](Cc1ccc(O)cc1)C(=O)O)CSSC[C@H](NC(=O)[C@H](Cc1ccc(O)cc1)NC(=O)[C@H](CCC(=O)O)NC3=O)C(=O)N2` [SEQ ID No. 1, Cys-Cys-Glu-Tyr-Cys-Cys-Asn-Pro-Ala-Cys-Thr-Gly-Cys-Tyr] (H-CCEYCCNPACTGCY-OH; disulfide 1-6, 2-10, 5-13), the “amount of SEQ ID NO. 1 able to be dissolved” value (from here on “amount of SEQ ID NO. 1 able”) ([1]; EtOH 0 v/v % in water) was 0.50 mg/mL, the “amount of SEQ ID NO. 1 able” value ([1]; EtOH 5 v/v % in water) was 0.25 mg/mL and the “amount of SEQ ID NO. 1 able” value ([1]; EtOH 10 v/v % in water) was 0.75 mg/mL. For the same molecule, the “amount of SEQ ID NO. 1 able” value ([1]; EtOH 15 v/v % in water) was 1.00 mg/mL, the “amount of SEQ ID NO. 1 able” value ([1]; EtOH 20 v/v % in water) was 0.75 mg/mL and the “amount of SEQ ID NO. 1 able” value ([1]; EtOH 25 v/v % in water) was 3.00 mg/mL. The “amount of SEQ ID NO. 1 able” value ([1]; EtOH 30 v/v % in water) was 3.00 mg/mL, the “amount of SEQ ID NO. 1 able” value ([1]; EtOH 35 v/v % in water) was 2.75 mg/mL and the “amount of SEQ ID NO. 1 able” value ([1]; EtOH 40 v/v % in water) was 2.25 mg/mL. For the same molecule, the “amount of SEQ ID NO. 1 able” value ([1]; EtOH 45 v/v % in water) was 3.50 mg/mL, the “amount of SEQ ID NO. 1 able” value ([1]; EtOH 50 v/v % in water) was 9.25 mg/mL and the “amount of SEQ ID NO. 1 able” value ([1]; EtOH 55 v/v % in water) was 179.25 mg/mL. The “amount of SEQ ID NO. 1 able” value ([1]; EtOH 60 v/v % in water) was 347.50 mg/mL, the “amount of SEQ ID NO. 1 able” value ([1]; EtOH 65 v/v % in water) was 430.00 mg/mL and the “amount of SEQ ID NO. 1 able” value ([1]; EtOH 70 v/v % in water) was 441.50 mg/mL. For the same molecule, the “amount of SEQ ID NO. 1 able” value ([1]; EtOH 75 v/v % in water) was 304.00 mg/mL, the “amount of SEQ ID NO. 1 able” value ([1]; EtOH 80 v/v % in water) was 45.25 mg/mL and the “amount of SEQ ID NO. 1 able” value ([1]; EtOH 85 v/v % in water) was 10.25 mg/mL. For the same molecule, the “amount of SEQ ID NO. 1 able” value ([1]; EtOH 90 v/v % in water) was 10.00 mg/mL, the “amount of SEQ ID NO. 1 able” value ([1]; EtOH 95 v/v % in water) was 3.75 mg/mL and the “amount of SEQ ID NO. 1 able” value ([1]; EtOH 100 v/v %) was 0.50 mg/mL. The “cGMP in human intestinal cells” value [2] was “increased cGMP”, the “effects on small bowel motility, fluid secretion and visceral pain” value [3] was “promising effects on increasing small bowel motility, fluid secretion and decreasing visceral pain” and the “amount of SEQ ID NO. 1 able” value ([4]; IPA 0 v/v % in water) was 1.3 mg/mL. The “amount of SEQ ID NO. 1 able” value ([4]; IPA 5 v/v % in water) was 1.8 mg/mL, the “amount of SEQ ID NO. 1 able” value ([4]; IPA 10 v/v % in water) was 2.3 mg/mL and the “amount of SEQ ID NO. 1 able” value ([4]; IPA 15 v/v % in water) was 3.3 mg/mL. For the same molecule, the “amount of SEQ ID NO. 1 able” value ([4]; IPA 20 v/v % in water) was 4.3 mg/mL, the “amount of SEQ ID NO. 1 able” value ([4]; IPA 25 v/v % in water) was 4.8 mg/mL and the “amount of SEQ ID NO. 1 able” value ([4]; IPA 30 v/v % in water) was 6.0 mg/mL. For the same molecule, the “amount of SEQ ID NO. 1 able” value ([4]; IPA 35 v/v % in water) was 7.0 mg/mL, the “amount of SEQ ID NO. 1 able” value ([4]; IPA 40 v/v % in water) was 13.8 mg/mL and the “amount of SEQ ID NO. 1 able” value ([4]; IPA 45 v/v % in water) was 47.8 mg/mL. For the same molecule, the “amount of SEQ ID NO. 1 able” value ([4]; IPA 50 v/v % in water) was 120.3 mg/mL, the “amount of SEQ ID NO. 1 able” value ([4]; IPA 55 v/v % in water) was 162.5 mg/mL and the “amount of SEQ ID NO. 1 able” value ([4]; IPA 60 v/v % in water) was 138.5 mg/mL. For the same molecule, the “amount of SEQ ID NO. 1 able” value ([4]; IPA 65 v/v % in water) was 106.5 mg/mL, the “amount of SEQ ID NO. 1 able” value ([4]; IPA 70 v/v % in water) was 65.7 mg/mL and the “amount of SEQ ID NO. 1 able” value ([4]; IPA 75 v/v % in water) was 26.5 mg/mL. The “amount of SEQ ID NO. 1 able” value ([4]; IPA 80 v/v % in water) was 19.0 mg/mL, the “amount of SEQ ID NO. 1 able” value ([4]; IPA 85 v/v % in water) was 12.5 mg/mL and the “amount of SEQ ID NO. 1 able” value ([4]; IPA 90 v/v % in water) was 9.0 mg/mL. The “amount of SEQ ID NO. 1 able” value ([4]; IPA 95 v/v % in water) was 4.5 mg/mL and the “amount of SEQ ID NO. 1 able” value ([4]; IPA 100 v/v %) was 0.3 mg/mL.
